Values after ≈ are worked out from the molar mass of the structure shown. Like-named read-outs stand apart in the source and are kept apart here.
Legend:
[1] = test system: Aspergillus niger ATCC 10578; experiment: Antifungal susceptibility by microbroth dilution (CLSI); assay type: cell-based
Protocol: (§1) The synthesized compounds were evaluated for antifungal susceptibility by microbroth dilution method according to the recommendations of the Clinical Laboratory Standards Institute (CLSI 2008). Briefly, appropriate amount of compounds were dissolved in dimethyl sulfoxide to get 100× final strength. The stock was then diluted 1:50 in RPMI/YPG medium and 200 μl from this was added to the first row of a 96-well microtitre plate. The compounds were serially diluted two fold in successive wells to get a range of 1-128 μg/ml. Fungal yeast cells (˜2×10^3 cfu/mL), freshly grown in YPG broth in logarithmic phase, were suspended in the medium and inoculated (100 μl) in the wells of the plate. For filamentous fungi, 2×10^4 spores/mL were added. The microtitre plate was incubated for 48 h, and the absorbance was measured at 600 nm by using microtitre plate reader to assess cell growth.

[2] = test system: Aspergillus fumigatus MCC 1046; experiment: as above; assay type: cell-based
Protocol: as §1

[3] = test system: Candida glabrata NCYC 388; experiment: as above; assay type: cell-based
Protocol: as §1

[4] = test system: Candida albicans ATCC 24433; experiment: as above; assay type: cell-based; details: for MIC: Table 1, 48 h, >90% inhibition of growth, range 1-128 μg/ml
Protocol: as §1

[5] = test system: Cryptococcus neoformans ATCC 34664; experiment: as above; assay type: cell-based; details: for MIC: Table 1, 48 h, >90% inhibition of growth
Protocol: as §1

[6] = test system: reactive oxygen species (ROS); experiment: ROS production using dichlorofluorescin diacetate dye; assay type: cell-based; details: C. albicans ATCC 24433, dichlorofluorescin diacetate dye
Protocol: Apart from lanosterol 14 a-demethylase inhibition, few azoles like miconazole are known to exert their antifungal action by reactive oxygen species (ROS) generation. Therefore ROS production in C. albicans ATCC 24433 was evaluated for these compounds by using dichlorofluorescin diacetate dye. […] ROS can damage a wide range of molecules, including nucleic acids, proteins and lipids, can cause apoptosis, necrotic death and with this wide range of targets it is difficult to determine which events lead to loss of viability of cells following damage.

[7] = test system: Candida albicans ATCC 10231; experiment: Antifungal susceptibility by microbroth dilution (CLSI); assay type: cell-based; details: for MIC: Table 1, 48 h, >90% inhibition of growth
Protocol: as §1

pathogenic fungi = experiment: Antifungal activity, overall assessment of the microbroth dilution results; assay type: cell-based; details: based on the MIC results
Protocol: as §1

ergosterol = experiment: Effect of the compounds on sterol profile (spectrophotometric ergosterol quantitation); assay type: cell-based, C. albicans ATCC 24433; details: for ergosterol depletion (sterol profile, height of absorbance peaks 220-300 nm): C. albicans ATCC 24433, 24 h, 0.5 MIC and MIC of the lead compounds; for inhibition of lanosterol 14 α-demethylase enzyme (concluded from ergosterol depletion): C. albicans ATCC 24433 sterol profile
Protocol: Inhibition of lanosterol 14 α-demethylase by azoles results in depletion of ergosterol. The depletion can be quantified by spectrophotometry. Briefly, Overnight grown C. albicans ATCC 24433 (1×10^6 cfu/ml) cells were inoculated in a series of flasks containing 50 ml of Yeast extract Peptone Glucose (YPG) broth containing […] of fluconazole per ml as well as 0.5 MIC and MIC of the lead compounds. The cultures were incubated for 24 h with shaking at 30° C. The stationary-phase cells were harvested by centrifugation […] and washed once with sterile distilled water. The net wet weight of the cell pellet was determined. Three milliliters of 25% alcoholic potassium hydroxide solution (25 g of […] and 35 ml of sterile distilled water, brought to 100 ml with 100% ethanol), was added to 125 mg of pellet and vortex mixed for 1 min. Cell suspensions were transferred to sterile borosilicate glass screw-cap tubes and were incubated in an 85° C. water bath for 1 h. Following incubation, tubes were allowed to cool to room temperature. Sterols were then extracted by addition of a mixture of 1 ml of sterile distilled water and 3 ml of n-heptane followed by vigorous vortex mixing for 3 min. The heptane layer was transferred to a clean borosilicate glass screw-cap tube. The sterol extract was scanned spectrophotometrically between 220 and 300 nm with a Spectrophotometer.

C. tropicalis ATCC 750 = experiment: Antifungal susceptibility by microbroth dilution (CLSI); assay type: cell-based; details: Table 2
Protocol: as §1

[8] = Aspergillus niger, ATCC10578, Table 1, 48 h, >90% inhibition of growth, read-out: MIC
[9] = Aspergillus fumigatus, MCC1046, Table 1, 48 h, >90% inhibition of growth, read-out: MIC
[10] = Nakaseomyces glabratus, NCYC388, Table 1, 48 h, >90% inhibition of growth, read-out: MIC
[11] = Candida albicans, ATCC24433, read-out: MIC
[12] = Cryptococcus neoformans, ATCC34664, read-out: MIC
[13] = Candida albicans, ATCC10231, read-out: MIC
[14] = Table 1, 48 h, >90% inhibition of growth

SMILES | MIC [1, 8] | MIC [2, 9] | MIC [3, 10] | MIC [4, 11] | MIC [5, 12] | melting point | further results
Cc1cc(C)cc(C(O)c2cn(-c3cc(Cl)ccc3O)nn2)c1 (stereo not drawn) [Compound 1aa, 4-Chloro-2-(4-((3,5-dimethylphenyl)(hydroxy)methyl)-1H-1,2,3-triazol-1-yl)phenol] | 64 µg/mL (≈ 194 µM) | 64 µg/mL (≈ 194 µM) | 32 µg/mL (≈ 97 µM) | 64 µg/mL (≈ 194 µM) | 32 µg/mL (≈ 97 µM) | 191 to 193 °C | –
Cc1cc(C)cc(C(O)c2cn(-c3ccc(Cl)cc3O)nn2)c1 (stereo not drawn) [Compound 1ab, 5-Chloro-2-(4-((3,5-dimethylphenyl)(hydroxy)methyl)-1H-1,2,3-triazol-1-yl)phenol] | > 128 µg/mL | 32 µg/mL (≈ 97 µM) | 32 µg/mL (≈ 97 µM) | 32 µg/mL (≈ 97 µM) | 32 µg/mL (≈ 97 µM) | – | ROS generation [6]: dose dependent increase in ROS generation; MIC [7, 13]: 32 µg/mL (≈ 97 µM); antifungal activity, overall assessment (pathogenic fungi): promising molecules; ergosterol depletion (sterol profile, height of absorbance peaks 220-300 nm) (ergosterol): no ergosterol depletion was observed
Oc1ccc(Cl)cc1-n1cc(C(O)c2cc(C(F)(F)F)cc(C(F)(F)F)c2)nn1 (stereo not drawn) [Compound 1ba, 2-(4-((3,5-Bis(trifluoromethyl)phenyl)(hydroxy)methyl)-1H-1,2,3-triazol-1-yl)-4-chlorophenol] | > 128 µg/mL | > 128 µg/mL | 128 µg/mL (≈ 292 µM) | 128 µg/mL (≈ 292 µM) | 16 µg/mL (≈ 36.6 µM) | 211 to 213 °C | –
CCC(O)(c1ccccc1)c1cn(-c2ccc(Cl)cc2O)nn1 (stereo not drawn) [Compound 1db] | – | – | – | – | – | – | MIC [1, 14]: >128 µg/mL; MIC [2, 14]: >128 µg/mL; MIC [7]: 32 µg/mL (≈ 97 µM); MIC [3, 14]: 8 µg/mL (≈ 24.3 µM); MIC [4]: 16 µg/mL (≈ 48.5 µM); MIC [5]: 16 µg/mL (≈ 48.5 µM); antifungal activity, overall assessment (pathogenic fungi): promising molecules
Oc1ccc(Cl)cc1-n1cc(CC(O)c2ccccc2)nn1 (stereo not drawn) [Compound 1ea, 4-Chloro-2-(4-(2-hydroxy-2-phenylethyl)-1H-1,2,3-triazol-1-yl)phenol] | 64 µg/mL (≈ 203 µM) | 128 µg/mL (≈ 405 µM) | 128 µg/mL (≈ 405 µM) | 64 µg/mL (≈ 203 µM) | > 128 µg/mL | 148 to 150 °C | –
Oc1cc(Cl)ccc1-n1cc(CC(O)c2ccccc2)nn1 (stereo not drawn) [Compound 1eb, 5-Chloro-2-(4-(2-hydroxy-2-phenylethyl)-1H-1,2,3-triazol-1-yl)phenol] | – | – | – | – | – | 171 to 172 °C | –
Oc1ccc(Cl)cc1-n1cc(CC(O)c2cc(C(F)(F)F)cc(C(F)(F)F)c2)nn1 (stereo not drawn) [Compound 1ja, 2-(-4-(2-(3,5-Bis(trifluoromethyl)phenyl)-2-hydroxyethyl)-1,2,3-triazol-1-yl)-4-chlorophenol] | – | – | – | – | – | 181 to 183 °C | –
Oc1cc(Cl)ccc1-n1cc(CC(O)c2cc(C(F)(F)F)cc(C(F)(F)F)c2)nn1 (stereo not drawn) [Compound 1jb, 2-(4-(2-(3,5-Bis(trifluoromethyl)phenyl)-2-hydroxyethyl)-1H-1,2,3-triazol-1-yl)-5-chlorophenol] | – | – | – | – | – | 192 to 194 °C | –
CC(O)(c1ccccc1)c1cn(-c2cc(Cl)ccc2O)nn1 (stereo not drawn) [Compound 2ca] | – | – | – | – | – | – | inhibition of lanosterol 14 α-demethylase enzyme (concluded from ergosterol depletion) (ergosterol): potent inhibitors
CC(O)(c1ccccc1)c1cn(-c2ccc(Cl)cc2O)nn1 (stereo not drawn) [Compound 2cb, 5-Chloro-2-(4-(1-hydroxy-1-phenylethyl)-1H-1,2,3-triazol-1-yl)phenol] | – | – | – | – | – | 232 to 234 °C | ergosterol depletion (sterol profile, height of absorbance peaks 220-300 nm) (ergosterol): no ergosterol depletion was observed
CC(O)(Cc1cn(-c2cc(Cl)ccc2O)nn1)c1ccccc1 (stereo not drawn) [Compound 2fa, 4-Chloro-2-(4-(2-hydroxy-2-phenylpropyl)-1H-1,2,3-triazol-1-yl)phenol] | > 128 µg/mL | 8 µg/mL (≈ 24.3 µM) | 8 µg/mL (≈ 24.3 µM) | 16 µg/mL (≈ 48.5 µM) | 16 µg/mL (≈ 48.5 µM) | – | ROS generation [6]: dose dependent increase in ROS generation; MIC [7, 13]: 16 µg/mL (≈ 48.5 µM); antifungal activity, overall assessment (pathogenic fungi): promising molecules
CC(O)(Cc1cn(-c2ccc(Cl)cc2O)nn1)c1ccccc1 (stereo not drawn) [Compound 2fb, 5-Chloro-2-(4-(2-hydroxy-2-phenylpropyl)-1H-1,2,3-triazol-1-yl)phenol] | – | – | – | – | – | 189 to 190 °C | –
CCC(O)(Cc1cn(-c2cc(Cl)ccc2O)nn1)c1ccccc1 (stereo not drawn) [Compound 2ga, 4-Chloro-2-(4-(2-hydroxy-2-phenylbutyl)-1H-1,2,3-triazol-1-yl)phenol] | > 128 µg/mL | 32 µg/mL (≈ 93.1 µM) | 8 µg/mL (≈ 23.3 µM) | 16 µg/mL (≈ 46.5 µM) | 16 µg/mL (≈ 46.5 µM) | 153 to 155 °C | MIC [7, 13]: 16 µg/mL (≈ 46.5 µM); antifungal activity, overall assessment (pathogenic fungi): promising molecules; inhibition of lanosterol 14 α-demethylase enzyme (concluded from ergosterol depletion) (ergosterol): potent inhibitors
CCC(O)(Cc1cn(-c2ccc(Cl)cc2O)nn1)c1ccccc1 (stereo not drawn) [Compound 2gb, 5-Chloro-2-(4-(2-hydroxy-2-phenylbutyl)-1H-1,2,3-triazol-1-yl)phenol] | > 128 µg/mL | 8 µg/mL (≈ 23.3 µM) | 8 µg/mL (≈ 23.3 µM) | 16 µg/mL (≈ 46.5 µM) | 8 µg/mL (≈ 23.3 µM) | 129 to 131 °C | MIC [7, 13]: 16 µg/mL (≈ 46.5 µM); antifungal activity, overall assessment (pathogenic fungi): promising molecules; ergosterol depletion (sterol profile, height of absorbance peaks 220-300 nm) (ergosterol): most effective
CCCCC(O)(Cc1cn(-c2cc(Cl)ccc2O)nn1)c1ccccc1 (stereo not drawn) [Compound 2ha, 4-chloro-2-(4-(2-hydroxy-2-phenylhexyl)-1H-1,2,3-triazol-1-yl)phenol] | – | – | – | – | – | 165 to 167 °C | –
Oc1ccc(Cl)cc1-n1cc(CC(O)(c2ccccc2)c2ccccc2)nn1 [Compound 2ia, 4-Chloro-2-(4-(2-hydroxy-2,2-diphenylethyl)-1H-1,2,3-triazol-1-yl)phenol] | > 128 µg/mL | 128 µg/mL (≈ 327 µM) | 128 µg/mL (≈ 327 µM) | 128 µg/mL (≈ 327 µM) | > 128 µg/mL | 194 to 196 °C | –
Oc1cc(Cl)ccc1-n1cc(CC(O)(c2ccccc2)c2ccccc2)nn1 [Compound 2ib, 5-Chloro-2-(-4-(2-hydroxy-2,2-diphenylethyl)-1H-1,2,3-triazol-1-yl)phenol] | – | – | – | – | – | 210 to 212 °C | –
CC(O)(Cc1cn(-c2ccc(Cl)cc2O)nn1)c1cc(C(F)(F)F)cc(C(F)(F)F)c1 (stereo not drawn) [Compound 2sb, 2-(4-(2-(3,5-Bis(trifluoromethyl)phenyl)-2-hydroxypropyl)-1H-1,2,3-triazol-1-yl)-5-chlorophenol] | – | – | – | – | – | 156 to 158 °C | –
CN(C)c1ccc(C(O)Cc2cn(-c3cc(Cl)ccc3O)nn2)cc1 (stereo not drawn) [Compound 3ga, 4-Chloro-2-(4-(2-(4-(dimethylamino)phenyl)-2-hydroxyethyl)-1H-1,2,3-triazol-1-yl)phenol] | – | – | – | – | – | – | MIC values ([1]; Table 2): >256 µg/mL; MIC values ([2]; Table 2): >256 µg/mL; MIC values ([7]; Table 2): 16 µg/mL (≈ 44.6 µM); MIC values ([3]; Table 2): 16 µg/mL (≈ 44.6 µM); MIC values ([4]; Table 2): 64 µg/mL (≈ 178 µM); MIC values (C. tropicalis ATCC 750): >256 µg/mL; MIC values ([5]; Table 2): 64 µg/mL (≈ 178 µM)
OC(Cn1cncn1)(Cn1cncn1)c1ccc(F)cc1F [Fluconazole, reference compound] | – | – | – | 2 µg/mL (≈ 6.53 µM) | 32 µg/mL (≈ 104 µM) | – | MIC ([1]; Aspergillus niger, ATCC10578, 48 h): > 128 µg/mL; MIC ([2]; Aspergillus fumigatus, MCC1046, 48 h): > 128 µg/mL; MIC [7, 13]: 8 µg/mL (≈ 26.1 µM); MIC ([3]; Nakaseomyces glabratus, NCYC388, 48 h): > 128 µg/mL; ergosterol depletion (sterol profile, height of absorbance peaks 220-300 nm) (ergosterol): dose-dependent decrease in the height of the absorbance peaks
